The source of these data is patent US20250236617A1, “BICYCLIC TETRAHYDROTHIAZEPINE DERIVATIVES” (Hoffmann-La Roche Inc., priority 2022, published 2025).

Usually EC50 stands for the concentration needed to bring the measured effect to its halfway point. A word on the Emax: it is the greatest response seen or fitted, relative to the assay's reference.

One test has as its system primary human T-cells. In words: IL2 secretion measurements in CD3-stimulated T-cells. The class given is cell-based. The following applies: CD3 condition; for Emax IL2 (% activation): 24 hours, 20 μM reference compound A1 = 100%; for EC50: Homo sapiens, T-cell, IL2 secretion after 24 hours, read-out: Tcell IL2 CD3 EC50. The gist of the method: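 Expanded primary human T-cells (100 k/well, RPMI + 5% human serum) on plate-bound anti-CD3 (donor-titrated) or PBS counter-screen wells, 5–6 pt dose response from 20 or 10 μM top (dilution factor 3.333), 0.2% DMSO final. IL-2 in 24 h supernatant by ProQuantum immunoassay or ELISA. Normalised to DMSO (0%) and 20 μM reference A1 (100%); EC50 and Emax from sigmoidal fit.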

The next test concerns MV-3 RFP cells. In words: T-cell-TCB-MV3 killing assay. The test is classed as cell-based. To be noted: MV-3, 120 h, primary human T-cells + MCSP-TCB, 5 d; for Emax: 20 μM reference compound A1 = 100%, read-out: MSCP TCB killing MV-3 cells 5 d Emax; for EC50: read-out: MSCP TCB killing MV-3 cells 5 d EC50. As to the method: All culturing steps are executed at 5% CO2, 37° C. and 95% humidity.
MV-3 RFP cells are cultured in MV-3 medium (DMEM+10% FBS, 1× PenStrep and 0.5 μg/mL Puromycin) for at least 3 weeks. Cultured MV-3 cells at 80% confluency are washed once with PBS−− and trypsinized until detached. […] Cells are seeded with 100 μL/well into a 96-well plate (TTP, #92696), and placed for 40 minutes without moving at room temperature in order to achieve evenly distributed attachment of cells. Plates are then incubated until further use.
On the next day, expanded primary human T-cells are thawed and resuspended in T-cell medium to 4*10^6 cells/mL. For 3 hours, they are cultured in a 6-well plate with 6 mL per well at maximum. After culturing the T-cells, they are filtered through a cell strainer (Miltenyi Biotech, #130-041-407), counted again, and cell concentration is adjusted to 2*10^6 cells/mL.
MCSP-TCB or PBS are pre-diluted in T-cell medium (concentration depending on T-cell donor), 4 times more concentrated than the end-concentration. 60 μL/well of pre-dilutions are then distributed into a round bottom plate (Costar, #3799) according to plate layout. Compounds are added in a 9 pt dose response with the Tecan D300e Digital Dispenser, as well 4 times more concentrated than the end-concentration. DMSO concentration of all wells is adjusted to 0.8%, resulting in 0.2% as final concentration.
60 μL per well of T-cell suspension are added to the prepared round bottom plate and resuspended with a manual multichannel. 100 μL/well of the resuspended T-cell suspension including treatments are then transferred cautiously to the over-night cultured MV-3 cells according to plate layout. 100 μL T-cell medium only is added to the outer MV-3 wells only. Final compound DR is starting at 20 μM with a dilution factor of 3.333. Final TCB concentration is between […] and was determined for each T-cell donor individually by running TCB titrations. For each donor, a TCB concentration was chosen which corresponds to 10-20% of MV3 baseline cell killing in the absence of compound treatment. Positive control is the reference compound A1 which is added in a DR, as well as additional wells with only 20 μM. 20 μM of reference compound A1 represent the positive stimulator control, TCB only (DMSO wells) the neutral control.
After transfer of T-cells with treatment pre-dilutions, MV-3 cells are imaged by time-lapse microscopy using IncucyteZOOM™ (Essen BioScience, MI, USA). Imaging is performed every 3 hours for a total of 120 hours (10× objective, phase and red image channels, acquisition time 400 ms, Green/Red 4614 optical module). RFP object count per well is analysed in the IncucyteZOOM™ Software (Version 2019B Rev2) with a mask that was previously created and optimized for MV-3 cells. Raw data is exported as object count/well and values are normalized as % TCL compared to wells with MV-3 only, representing 100% growth and therefore 0% TCL.
Calculated % TCL values are analysed in Genedata Screener using Roche Normalization PCT_POS_CTRL with MCSP-TCB only set as Neutral Control and 20 μM of the reference compound A1 set as Stimulator Control/100%.

For `CC(C)(C)c1cncc(-c2cc3c(cc2F)S(=O)(=O)C[C@H](N)C(=O)N3Cc2ccc(Cl)cc2)c1` [Example 2, (3R)-3-amino-7-(5-tert-butyl-3-pyridyl)-5-[(4-chlorophenyl)methyl]-8-fluoro-1,1-dioxo-2,3-dihydro-1λ6,5-benzothiazepin-4-one], in the test on primary human T-cells, the “Emax IL2 (% activation)” value is recorded as 109 % activation and the EC50 was found to be 459 nM. In addition, in the test with MV-3 RFP cells, the Emax stood at 85% and the 50% effective concentration (EC50) amounted to 78 nM.
In the same order, the values of `CC(C)(C)c1cnnc(-c2cc3c(cc2F)S(=O)(=O)C[C@H](N)C(=O)N3Cc2ccc(Cl)cc2)n1` [Example 11, (3R)-3-amino-7-(5-tert-butyl-1,2,4-triazin-3-yl)-5-[(4-chlorophenyl)methyl]-8-fluoro-1,1-dioxo-2,3-dihydro-1λ6,5-benzothiazepin-4-one] are 79 % activation, 119 nM, 118% and 134 nM.
For the molecule `CC(C)(C#N)c1cncc(-c2cc3c(cc2F)S(=O)(=O)C[C@H](N)C(=O)N3Cc2ccc(-c3noc(C(F)(F)F)n3)cc2)c1` [Example 23, 2-[5-[(3R)-3-amino-8-fluoro-1,1,4-triketo-5-[4-[5-(trifluoromethyl)-1,2,4-oxadiazol-3-yl]benzyl]-2,3-dihydro-1λ6,5-benzothiazepin-7-yl]-3-pyridyl]-2-methyl-propionitrile], in the test with primary human T-cells, the “Emax IL2 (% activation)” value stood at 213 % activation and the EC50 amounted to 3540 nM.
For the molecule `CC(C)(c1cncc(-c2cc3c(cc2F)S(=O)(=O)C[C@H](N)C(=O)N3Cc2ccc(-c3noc(C(F)(F)F)n3)cc2)c1)S(C)(=O)=O` [Example 25, (3R)-3-amino-8-fluoro-1,1-diketo-7-[5-(1-mesyl-1-methyl-ethyl)-3-pyridyl]-5-[4-[5-(trifluoromethyl)-1,2,4-oxadiazol-3-yl]benzyl]-2,3-dihydro-1λ6,5-benzothiazepin-4-one], in the test with primary human T-cells, the “Emax IL2 (% activation)” value is 168 % activation and the 50% effective concentration (EC50) is 4520 nM. For the same molecule, in the test on MV-3 RFP cells, the Emax was 86% and the EC50 came out at 841 nM.
In the case of `COc1ccc(-c2ccc(CN3C(=O)[C@@H](N)CS(=O)(=O)c4cc(F)c(-c5cnc(C)c(C)c5)cc43)cc2)cc1` [Example 28, (3R)-3-amino-7-(5,6-dimethyl-3-pyridyl)-8-fluoro-5-[[4-(4-methoxyphenyl)phenyl]methyl]-1,1-dioxo-2,3-dihydro-1λ6,5-benzothiazepin-4-one], in the test on primary human T-cells, the “Emax IL2 (% activation)” value was 237 % activation and the EC50 was 763 nM. Also, in the test with MV-3 RFP cells, the Emax was determined as 89% and the concentration for a half-maximal effect (EC50) worked out at 69 nM.
